Measurements from doi:10.1101/2023.07.11.548539v1, “A side-by-side comparison of peptide-delivered antisense antibiotics employing different nucleotide mimics” (bioRxiv, 2023).
Oligonucleotides are written 5' to 3', each unit as a sugar letter and its base; * is a phosphorothioate linkage, no mark a phosphodiester; rarer units and linkages stand in square brackets, end groups in braces. Plain capitals give the bases only. d = 2'-deoxy (DNA)

What was measured:
[1] = system: acpP::gfp reporter transcript; assay: In vitro translation (PURExpress) and anti-GFP western blot; type: biochemical, Salmonella enterica; design: key to Inhibition of translation in vitro: -: Effect strength is represented by additional (+) signs.; Effect strength is represented by additional (+) signs.; ++: Effect strength is represented by additional (+) signs.; +++: Effect strength is represented by additional (+) signs; details: unconjugated ASO; for GFP Expression (%): RNA 100 nM, 2 h 37 °C, relative to water control; for Inhibition of translation in vitro: summary grade; for Inhibition of in vitro translation of acpP::gfp (in words): western blot of AcpP-GFP fusion protein
Description: For the generation of target RNA::gfp fusion constructs, we used a previously established protocol ([31]) and the oligonucleotides JVO-19760/JVO-19761 (Supplementary Table 1) to amplify the genomic region spanning nucleotides –40 to + 51 relative to the translational start codon of acpP. The sense oligonucleotide was fused to a T7 promoter sequence for subsequent transcription of the final fusion construct in vitro. The antisense oligonucleotide contained a 30 nt overlapping region with gfp for subsequent fusion PCR with full length gfp (pXG-10; JVO-19762/JVO-19763) (Supplementary Table 1). The PCR products were purified with NucleoSpin Gel and PCR Clean-up (Macherey-Nagel) according to the manufacturer’s instructions and DNA concentration was quantified with a NanoDrop spectrophotometer (A260 nm).
PCR products were used for T7 RNA polymerase-driven transcription in vitro using the MEGAscript T7 kit (Ambion/Thermo Scientific), according to the manufacturer’s instructions and analogous to our previous publication ([31]). The concentration of the RNA solution was quantified with Qubit (Fisher Scientific) and the expected product size and RNA integrity was verified on a 6% PAA, 7 M urea gel.
For in vitro translation of target RNA::gfp fusion constructs, the PURExpress® In Vitro Protein Synthesis Kit (New England Biolabs, E6800L) was used as described previously ([31]). Briefly, the final volume of each in vitro translation reaction was set to 10 µL. 1µL of different concentrations of ASOs ranging from 10 µM to 0.625 µM were added to 1 µL of in vitro transcribed heat-denatured RNA (1µM) to adjust the final RNA concentration to 100 nM. The mixtures were pre-incubated at 37 °C for 5 min. Then 4 µL of Solution A and 3 µL of Solution B were added to the pre-annealed mixtures. After 2 h at 37 °C, protein samples were denatured in 1x reducing protein loading buffer (62.6 mM Tris–HCl pH 6.8, 2 % SDS, 0.1 mg/mL bromphenol blue, 15.4 mg/mL DTT, 10 % glycerol) at 95 °C for 5 min.
To visualise in vitro translated proteins, samples were separated on SDS-PAA (12 % PAA) gels, with subsequent semi-dry western blot transfer on polyvinylidene fluoride (PVDF) membranes. Membranes were blocked with 10% skim milk (in 1x TBS-T) for 1 h and probed with anti-GFP antibody (1:1,000; Sigma-Aldrich) in 5 % skim milk (in 1x TBS-T) overnight at 4 °C. After washing in 1x TBS-T and incubation with an HRP-conjugated secondary antibody (1:5,000; ThermoScientific) in 1x TBS-T, the membrane was incubated with developing solution kit (Amersham™ ECL Select™ Western Blotting Detection Reagent) and protein levels were detected using an ImageQuant LAS 500 (GE Healthcare Life Sciences). Images were processed and band intensities quantified using ImageJ. Protein bands were normalized to the water control.

[2] = system: Salmonella; assay: Salmonella growth assay; type: cell-based, Salmonella enterica serovar Typhimurium strain SL1344; design: key to Antibacterial activity: -: Effect strength is represented by additional (+) signs.; Effect strength is represented by additional (+) signs.; ++: Effect strength is represented by additional (+) signs.; +++: Effect strength is represented by additional (+) signs; details: for Effect on Salmonella growth (in words): KFF-ASO conjugates or unconjugated peptide, 24 h growth kinetics, OD600, MHB, 37 °C, up to 10 µM; for Antibacterial activity: summary grade, ASO conjugated to the carrier peptide
Protocol: An overnight bacterial cell culture was diluted 1:100 in fresh MHB and grown to OD600 0.5. The obtained culture was diluted to approximately 10^5 cfu/ml in non-cation-adjusted MHB. Subsequently, 190 µl bacterial solution was dispensed into a 96-well plate (Thermo Fisher Scientific) along with 10 µl of a 200 µM solution of the ASOs. Growth was monitored by measuring the OD at 600 nm every 20 min in a Synergy H1 plate reader (Biotek) with continuous double-orbital shaking (237 cpm) at 37 °C for 24 h.

[3] = system: AcpP::3xFLAG fusion protein; assay: Western blot of intracellular AcpP protein levels; type: cell-based, Salmonella SL1344 AcpP::3xFLAG; design: key to AcpP protein reduction: -: Effect strength is represented by additional (+) signs.; Effect strength is represented by additional (+) signs.; ++: Effect strength is represented by additional (+) signs.; +++: Effect strength is represented by additional (+) signs; details: for AcpP protein reduction: summary grade, KFF-ASO treatment (Figure 9); for AcpP protein level (in words): 5 µM KFF-ASO conjugate, 30, 60, 120, 240 min for PNA and PMO, 120 min for all other ASOs
Protocol: Salmonella wild type (WT) and SL1344 AcpP::3xFLAG (chromosmal fusion of full length acpP to 3XFLAG-tag as described earlier([47]); internal strain number JVS-12398) were grown overnight in non-cation adjusted MHB. Bacterial cultures were diluted 1:100, grown to OD600 0.5 and subsequently diluted to approximately 10^6 cfu/ml in MHB. Then, 1.9 ml of each diluted bacterial solution was transferred into 5 ml low-binding tubes, pre-incubated at 37 °C for 10 min and treated with 100 µl of ASOs to adjust a final concentration of 5 µM. Water was added as negative control. The treatment with PNA and PMO was performed with aeration at 37 °C and 220 rpm shaking for 30, 60, 120 and 240 minutes while for all other ASOs, they were treated for 120 min only. Subsequently, the cells were collected by centrifugation at 4 °C and 16,000 ×g for 5 min, resuspended in 1× Protein Loading Buffer (62.6 mM Tris–HCl pH 6.8, 2 % SDS, 0.1 mg/ml bromophenol blue, 15.4 mg/ml DTT, 10 % glycerol) and denatured at 95 °C for 10 min.
For detection of AcpP::3xFLAG protein levels, samples were separated on an 12% SDS-PAA gel and transferred onto a Nitrocellulose membrane via semi dry western blotting. The membrane was probed with an α-FLAG antibody (Sigma; 1:1,000 in 1x TBS-T containing 3% BSA) at 4 °C overnight. After washing in 1x TBS-T, the membrane was incubated with a secondary HRP-conjugated anti-mouse antibody (Thermo Scientific; 1:5,000 in 1x TBS-T containing 1% BSA) at RT for 1 hour. Excessive antibody was removed by repeated wash steps in 1x TBS-T and the membrane was developed by Amersham™ ECL Select™ Western Blotting Detection Reagent Kit (Cytiva).

Substance	GFP Expression (%) ([1]; acpP-RNA : ASO 1 : 0.625)	GFP Expression (%) ([1]; acpP-RNA : ASO 1 : 1.25)	GFP Expression (%) ([1]; acpP-RNA : ASO 1 : 2.5)	GFP Expression (%) ([1]; acpP-RNA : ASO 1 : 5)	GFP Expression (%) ([1]; acpP-RNA : ASO 1 : 10)	Inhibition of translation in vitro [1]	Effect on Salmonella growth (in words) [2]	Antibacterial activity [2]	AcpP protein reduction [3]	Inhibition of in vitro translation of acpP::gfp (in words) [1]	AcpP protein level (in words) [3]
DNA-PTO: 10mer phosphorothioate-modified DNA antisense oligomer, sequence CTCATACTCT, targeting acpP (antisense dC*dT*dC*dA*dT*dA*dC*dT*dC*dT)	110.7%	106.7%	104.6%	96.5%	96.3%	-	slight growth retardation was observed at 5 µM and 10 µM	-	-		
LNA: 10mer 2'-4'-locked RNA antisense oligomer, sequence CTCATACTCT, targeting acpP (all LNA, backbone and methylation of C not given here)	97.8%	38.1%	8.0%	6.5%	4.5%		slight growth retardation was observed at 5 µM and 10 µM	-	-	substantially blocking in vitro translation of acpP::gfp at 1.25x molar excess	
PMO: 10mer phosphorodiamidate morpholino antisense oligomer, sequence CTCATACTCT, targeting acpP (all phosphorodiamidate morpholino (PMO))	117.0%	104.6%	92.7%	60.4%	28.3%			+	+		gradual depletion of AcpP, albeit less pronounced than PNA
PNA: 10mer peptide nucleic acid antisense oligomer, sequence CTCATACTCT, targeting acpP (all peptide nucleic acid (PNA))	106.8%	85.9%	13.0%	5.7%	5.5%			++	++	substantially blocking in vitro translation of acpP::gfp at 1.25x molar excess	depletion in AcpP levels can be observed from 60 min post treatment onwards
RNA-F: 10mer 2'-fluorinated RNA antisense oligomer, sequence CTCATACTCT, targeting acpP (all 2'-fluoro, backbone and T or U not given here)	96.1%	97.5%	85.0%	69.5%	58.3%		slight growth retardation was observed at 5 µM and 10 µM	-	-		
RNA-MOE: 10mer 2'-methoxyethylated RNA antisense oligomer, sequence CTCATACTCT, targeting acpP (all 2'-MOE, backbone and methylation of C not given here)	88.5%		5.1%	3.3%	3.4%		slight growth retardation was observed at 5 µM and 10 µM	-	-	substantially blocking in vitro translation of acpP::gfp at 1.25x molar excess	
RNA-OMe: 10mer 2'-methylated RNA antisense oligomer, sequence CTCATACTCT, targeting acpP (all 2'-O-methyl, backbone and T or U not given here)	91.2%	100.6%	90.2%	89.0%	83.7%	+	no activity at all	-	-		
